Patent publication US7417156B2, “Orally active, antimalarial, anticancer, artemisinin-derived trioxane dimers” (Johns Hopkins University, priority 2002, dated 2008)

Legend:
SR = assay: NCI 60 cell line panel screen (SRB); assay type: cell-based, human; conditions: for Log10LC50 / Log10TGI50: SR (Leukemia); for Log10LC50: LC50: PG=−50; for Log10TGI50: TGI: PG=0
NCI-H226 = assay: NCI 60 cell line panel screen (SRB); assay type: cell-based, human
HCC-2998 = assay: NCI 60 cell line panel screen (SRB); assay type: cell-based, human; conditions: for Log10GI50: Colon Cancer, HCC-2998; for Log10LC50 / Log10TGI50: HCC-2998 (Colon Cancer); for Log10LC50: LC50: PG=−50; for Log10TGI50: TGI: PG=0
HCT-15 = assay: NCI 60 cell line panel screen (SRB); assay type: cell-based, human; conditions: for Log10GI50: Colon Cancer, HCT-15; for Log10LC50 / Log10TGI50: HCT-15 (Colon Cancer); for Log10LC50: LC50: PG=−50; for Log10TGI50: TGI: PG=0
SW-620 = assay: NCI 60 cell line panel screen (SRB); assay type: cell-based, human; conditions: for Log10GI50: Colon Cancer, SW-620; for Log10LC50 / Log10TGI50: SW-620 (Colon Cancer); for Log10LC50: LC50: PG=−50; for Log10TGI50: TGI: PG=0
SK-MEL-5 = assay: NCI 60 cell line panel screen (SRB); assay type: cell-based, human
UACC-62 = assay: NCI 60 cell line panel screen (SRB); assay type: cell-based, human; conditions: for Log10GI50: Melanoma, UACC-62; for Log10LC50 / Log10TGI50: UACC-62 (Melanoma); for Log10LC50: LC50: PG=−50; for Log10TGI50: TGI: PG=0
786-0 = assay: NCI 60 cell line panel screen (SRB); assay type: cell-based, human; conditions: for Log10LC50 / Log10TGI50: 786-0 (Renal Cancer); for Log10LC50: LC50: PG=−50; for Log10TGI50: TGI: PG=0; for Log10GI50: Renal Cancer, 786-0
A498 = assay: NCI 60 cell line panel screen (SRB); assay type: cell-based, human; conditions: for Log10LC50: LC50: PG=−50; for Log10GI50: Renal Cancer, A498
SN12C = assay: NCI 60 cell line panel screen (SRB); assay type: cell-based, human; conditions: for Log10GI50: Renal Cancer, SN12C; for Log10LC50: LC50: PG=−50
MDA-MB231/ATCC = assay: NCI 60 cell line panel screen (SRB); assay type: cell-based, human; conditions: for Log10GI50: Breast Cancer, MDA-MB231/ATCC; for Log10TGI50: TGI: PG=0
MDA-N = assay: NCI 60 cell line panel screen (SRB); assay type: cell-based, human; conditions: for Log10GI50: Breast Cancer, MDA-N
P. berghei = conditions: P. berghei-infected mice; cited from earlier work
[1] = test system: Ehrlich ascites tumor (EAT) cells; conditions: MTT assay; cited from earlier work
P388 leukemia = conditions: NCI Report on NSC 369397; cited from earlier work
[2] = test system: P. vivax and P. falciparum; conditions: 2099 cases of malaria, different dosage forms; cited from earlier work
LOX IMVI = assay: NCI 60 cell line panel screen (SRB); assay type: cell-based, human
OVCAR-4 = assay: NCI 60 cell line panel screen (SRB); assay type: cell-based, human
DU-145 = assay: NCI 60 cell line panel screen (SRB); assay type: cell-based, human

`C[C@@H]1CC[C@H]2[C@@H](C)C(=O)O[C@@H]3O[C@]4(C)CC[C@@H]1[C@]32OO4` [Artemisinin] showed a Log10GI50 (SR; Leukemia, SR) greater than −4.00, a Log10LC50 (SR) greater than −4.00 log10M and a Log10TGI50 (SR) greater than −4.00 log10M. For the same molecule, the Log10LC50 (NCI-H226; NCI-H226 (Non-Small Cell Lung Cancer), LC50: PG=−50) was greater than −4.00 log10M, the Log10TGI50 (NCI-H226; NCI-H226 (Non-Small Cell Lung Cancer), TGI: PG=0) was greater than −4.00 log10M and the Log10GI50 (NCI-H226; Non-Small Cell Lung Cancer, NCI-H226) was greater than −4.00. For the same molecule, the Log10GI50 (HCC-2998) was greater than −4.00, the Log10LC50 (HCC-2998) was greater than −4.00 log10M and the Log10TGI50 (HCC-2998) was greater than −4.00 log10M. For the same molecule, the Log10GI50 (HCT-15) was greater than −4.00, the Log10LC50 (HCT-15) was greater than −4.00 log10M and the Log10TGI50 (HCT-15) was greater than −4.00 log10M. The Log10GI50 (SW-620) was greater than −4.00, the Log10LC50 (SW-620) was greater than −4.00 log10M and the Log10TGI50 (SW-620) was greater than −4.00 log10M. The Log10GI50 (SK-MEL-5; Melanoma, SK-MEL-5) was greater than −4.10, the Log10TGI50 (SK-MEL-5; SK-MEL-5 (Melanoma), TGI: PG=0) was greater than −4.00 log10M and the Log10GI50 (UACC-62) was greater than −4.00. It also gave a Log10LC50 (UACC-62) greater than −4.00 log10M, a Log10TGI50 (UACC-62) greater than −4.00 log10M and a Log10LC50 (786-0) greater than −4.00 log10M. It also gave a Log10TGI50 (786-0) greater than −4.00 log10M, a Log10GI50 (786-0) greater than −4.00 and a Log10LC50 (A498; A498 (Renal Cancer)) greater than −4.00 log10M. It also gave a Log10TGI50 (A498; A498 (Renal Cancer), TGI: PG=0) greater than −4.00 log10M, a Log10GI50 (A498) greater than −4.00 and a Log10GI50 (SN12C) of −4.21. For the same molecule, the Log10LC50 (SN12C; SN12C (Renal Cancer)) was greater than −4.00 log10M, the Log10TGI50 (SN12C; SN12C (Renal Cancer), TGI: PG=0) was greater than −4.00 log10M and the Log10GI50 (MDA-MB231/ATCC) was −4.20. It also gave a Log10LC50 (MDA-MB231/ATCC; MDA-MB231/ATCC (Breast Cancer), LC50: PG=−50) greater than −4.00 log10M, a Log10TGI50 (MDA-MB231/ATCC; MDA-MB231/ATCC (Breast Cancer)) greater than −4.00 log10M and a Log10GI50 (MDA-N) greater than −4.00. The Log10LC50 (MDA-N; MDA-N (Breast Cancer), LC50: PG=−50) was greater than −4.00 log10M, the Log10TGI50 (MDA-N; MDA-N (Breast Cancer), TGI: PG=0) was greater than −4.00 log10M and the SD90 (P. berghei) was 6.20 mg/kg. The IC50 [1] was 29.8 µM, the activity in words (P388 leukemia) was “inactive” and the clinical outcome [2] was “clinical cure of all patients”.
`CC(=O)O[C@H]1C(=O)[C@@]2(C)[C@H]([C@H](OC(=O)c3ccccc3)[C@]3(O)C[C@H](OC(=O)[C@H](O)[C@@H](NC(=O)c4ccccc4)c4ccccc4)C(C)=C1C3(C)C)[C@]1(OC(C)=O)CO[C@@H]1C[C@@H]2O` [Paclitaxel, paclitaxel, reference compound] showed a Log10LC50 (SR) greater than −4.00 log10M, a Log10TGI50 (SR) greater than −4.00 log10M and a Log10GI50 (HCC-2998) of −12.34. For the same molecule, the Log10LC50 (HCC-2998) was −4.26 log10M, the Log10TGI50 (HCC-2998) was −4.77 log10M and the Log10GI50 (HCT-15) was −6.37. The Log10LC50 (HCT-15) was greater than −4.00 log10M, the Log10TGI50 (HCT-15) was greater than −4.00 log10M and the Log10GI50 (SW-620) was −11.60. The Log10LC50 (SW-620) was greater than −4.00 log10M, the Log10TGI50 (SW-620) was greater than −4.00 log10M and the Log10LC50 (LOX IMVI; LOX IMVI (Melanoma), LC50: PG=−50) was greater than −4.15 log10M. The Log10TGI50 (LOX IMVI; LOX IMVI (Melanoma), TGI: PG=0) was −4.65 log10M, the Log10GI50 (LOX IMVI; Melanoma, LOX IMVI) was −11.80 and the Log10GI50 (UACC-62) was −10.46. For the same molecule, the Log10LC50 (UACC-62) was −4.19 log10M, the Log10TGI50 (UACC-62) was −4.71 log10M and the Log10LC50 (OVCAR-4; OVCAR-4 (Ovarian Cancer), LC50: PG=−50) was greater than −4.00 log10M. The Log10TGI50 (OVCAR-4; OVCAR-4 (Ovarian Cancer), TGI: PG=0) was −4.19 log10M, the Log10GI50 (OVCAR-4; Ovarian Cancer, OVCAR-4) was −5.00 and the Log10LC50 (786-0) was greater than −4.00 log10M. The Log10TGI50 (786-0) was greater than −4.00 log10M, the Log10GI50 (786-0) was −8.01 and the Log10LC50 (A498; A498 (Renal Cancer)) was −4.13 log10M. For the same molecule, the Log10GI50 (A498) was −7.14, the Log10GI50 (SN12C) was −9.53 and the Log10LC50 (SN12C; SN12C (Renal Cancer)) was greater than −4.00 log10M. For the same molecule, the Log10LC50 (DU-145; DU-145 (Prostate Cancer), LC50: PG=−50) was greater than −4.00 log10M, the Log10TGI50 (DU-145; DU-145 (Prostate Cancer), TGI: PG=0) was greater than −4.00 log10M and the Log10GI50 (DU-145; Prostate Cancer, DU-145) was −9.38. For the same molecule, the Log10GI50 (MDA-MB231/ATCC) was −8.54, the Log10TGI50 (MDA-MB231/ATCC; MDA-MB231/ATCC (Breast Cancer)) was −4.84 log10M and the Log10GI50 (MDA-N) was less than −13.00.
